Here are results for 38 molecules from the SangsterLogP compilation.

Molecules are shown by their SMILES.

This data set can be described thus: method code SF, from Craig, N. (1990). Drug Compendium. In Hansch, C (Ed.), Comprehensive Medicinal Chemistry. Pergamon Press.

Molecule `CCN(CC)CCNc1ccc(CO)c2sc3ccccc3c(=O)c12` displayed a logP of 2.7.

For `CCC(OC(C)=O)C(CC(C)N(C)C)(c1ccccc1)c1ccccc1` (stereo not drawn), the logP turned out to be 4.27.

Turning to `CCNC1C2CCC(C2)C1c1ccccc1` (stereo not drawn), the logP was found to be 3.2.

With `CC(=O)O[C@H]1C[C@H](O[C@H]2[C@@H](O)C[C@H](O[C@H]3[C@@H](O)C[C@H](O[C@H]4CC[C@@]5(C)[C@H](CC[C@@H]6[C@@H]5CC[C@]5(C)[C@@H](C7=CC(=O)OC7)CC[C@]65O)C4)O[C@@H]3C)O[C@@H]2C)O[C@H](C)[C@H]1O`, the lipophilicity (logP) was found to be 1.97.

In turn, `N=C(N)N1CCc2ccccc2C1` gave a log partition coefficient (logP) of 0.75.

`CCC(=O)O[C@]1(c2ccccc2)CCN(C)C[C@H]1CC`: the lipophilicity (logP) is 3.61.

In turn, `CCOC(=O)[C@H](CCc1ccccc1)N[C@H]1CCCN2CCC[C@@H](C(=O)O)N2C1=O` came in with a logD (pH 4.9) of 0.55.

In the case of `OC[C@@H](O)[C@H]1O[C@@H]2O[C@H](C(Cl)(Cl)Cl)O[C@@H]2[C@H]1O`, the lipophilicity (logP) worked out at 1.02.

In turn, `C[C@]12CCC(=O)C=C1CC[C@@H]1[C@@H]2CC[C@@]2(C)[C@H]1CC[C@]2(O)C(=O)CO` registered a logP of 2.52.

Molecule `Cc1ncc([N+](=O)[O-])n1CCc1ccncc1` displayed a logP of 0.06.

In turn, `CN(C)CCN1C(=O)c2ccccc2Nc2cc(Cl)ccc21` had a lipophilicity (logP) of 3.73.

`CCN[C@@H](C)Cc1cccc(C(F)(F)F)c1` came in with a logP of 3.36.

In the case of `CN(C)CCC1CN(C)C(=S)c2cnccc2O1` (stereo not drawn), the logP worked out at 1.08.

Molecule `N#Cc1ccccc1OCC(O)CNCCNC(=O)Cc1ccc(O)cc1` (stereo not drawn) gave a logP of 0.92.

`COc1cc2c(cc1OC)C(CCCCC1NCCc3cc(OC)c(OC)cc31)NCC2` (stereo not drawn) yielded a log partition coefficient (logP) of 3.35.

For the molecule `COc1cc(S(C)=O)ccc1-c1nc2ncccc2[nH]1` (stereo not drawn), the logP was found to be 1.17.

For `Nc1ccc(S(=O)(=O)c2ccc(N)cc2)cc1`, the logP worked out at 1.03.

In the case of `CC(=O)[C@H]1CC[C@H]2[C@@H]3C[C@H](C)C4=CC(=O)CC[C@]4(C)[C@H]3C(=O)C[C@]12C`, the logP was 2.75.

Molecule `CCOC(=O)[C@H](CCc1ccccc1)N[C@@H](C)C(=O)N1CCC[C@H]1C(=O)O` yielded a pH-dependent lipophilicity (logD) (pH 4.9) of -0.07.

`C[C@@H]1C[C@H]2[C@@H]3C[C@H](F)C4=CC(=O)C=C[C@]4(C)[C@@]3(F)[C@@H](O)C[C@]2(C)[C@H]1C(=O)COC(=O)C(C)(C)C` came in with a logP of 3.86.

On to `CSc1ccc(OCc2ncc([N+](=O)[O-])n2C)cc1`, for which the logP is 2.5.

Molecule `CCC1(CC)C(=O)NCC(C)C1=O` (stereo not drawn) came in with a logP of 0.78.

The molecule `NCc1ccccc1Sc1ccccc1CO` showed a logP of 2.39.

For the molecule `OCCN1CCN([C@@H]2C[C@@H](c3ccc(F)cc3)c3ccc(C(F)(F)F)cc32)CC1`, the logP is 4.39.

In turn, `Cc1ccccc1-n1c(C)nc2ccccc2c1=O` had a logP of 2.5.

With `CCOC(=O)C=C1SC(N2CCCCC2)C(=O)N1C` (stereo not drawn), the logD (pH 7.4) came out at 2.3.

In turn, `CN1CC[C@@]23CCCC[C@@H]2[C@@H]1Cc1ccc(O)cc13` gave a logP of 3.11.

`NC(=O)c1csc([C@@H]2O[C@H](CO)[C@@H](O)[C@H]2O)n1` gave a logP of -1.73.

Molecule `Nc1ncn([C@@H]2O[C@H](CO)[C@@H](O)[C@@H]2O)c(=O)n1` had a logP of -2.17.

Consider `NC(=O)CCC/N=C(\c1ccc(Cl)cc1)c1cc(F)ccc1O`, for which the logP was 2.97.

Molecule `CC(C)S(=O)(=O)n1c(N)nc2ccc(/C(=N\O)c3ccccc3)cc21` had a lipophilicity (logP) of 3.1.

On to `O=[N+]([O-])c1cnc(-c2ccc(F)cc2)n1CCO`, for which the logP is 1.33.

Molecule `Cc1ncc([N+](=O)[O-])n1CCOC(N)=O` returned a log partition coefficient (logP) of -0.29.

Regarding `CCc1ncc([N+](=O)[O-])n1CCNC(=S)OC`, the lipophilicity (logP) worked out at 1.46.

Regarding `COc1cc(NS(=O)(=O)c2ccc(N)cc2)ncn1`, the logP came to 0.7.

`C=CCC1(C(C)CC)C(=O)NC(=O)NC1=O` (stereo not drawn) came in with a logP of 1.47.

`CC(C)/N=C(N)/N=C(\N)Nc1ccc(Cl)cc1` gave a lipophilicity (logP) of 2.53.

`CCC(O)C(CC(C)N(C)C)(c1ccccc1)c1ccccc1` (stereo not drawn) came in with a logP of 4.27.
